Source: ChEMBL document CHEMBL1148006, “Benzimidazo[1,2-c][1,2,3]thiadiazole-7-sulfonamides as inhibitors of carbonic anhydrase” (Bioorg Med Chem Lett, 2007)

What follows are compounds tested against Carbonic anhydrase 2 (Bos taurus, UniProt P00921) (assay: Binding affinity to bovine CA2 by typical isothermal titration calorimetry).
Carbonic anhydrase 2, sequence (P00921 whole entry): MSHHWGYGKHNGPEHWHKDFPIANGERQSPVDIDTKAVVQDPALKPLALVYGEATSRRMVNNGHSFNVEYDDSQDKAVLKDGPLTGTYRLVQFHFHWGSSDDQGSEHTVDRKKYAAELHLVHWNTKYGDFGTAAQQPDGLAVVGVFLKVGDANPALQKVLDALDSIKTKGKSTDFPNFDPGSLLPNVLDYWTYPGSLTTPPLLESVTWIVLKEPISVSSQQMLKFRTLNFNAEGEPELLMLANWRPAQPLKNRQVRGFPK
In the case of NS(=O)(=O)c1ccc2nc3n(c2c1)N=S=C3Sc1ccccc1, the Kd is reported as 285 nM. Work on CS(=O)(=O)C1=S=Nn2c1nc1ccc(S(N)(=O)=O)cc12 yielded a Kd of 500 nM. NS(=O)(=O)c1ccc2nc3n(c2c1)N=S=C3N1CCOCC1 gave a Kd of 38 nM. NS(=O)(=O)c1ccc2nc3n(c2c1)N=S=C3Cl gave a Kd of 141 nM. Compound CSC1=S=Nn2c1nc1ccc(S(N)(=O)=O)cc12 has a Kd of 322 nM. Work on CN1CCN(C2=S=Nn3c2nc2ccc(S(N)(=O)=O)cc23)CC1 yielded a Kd of 391 nM. NS(=O)(=O)c1ccc2nc3n(c2c1)N=S=C3 showed a Kd of 286 nM.
